Literature values in publication PMC6709472 (Antimicrobial Agents and Chemotherapy, 2019).

How the values were obtained:
[1] = read-out: 50% effective concentration [EC50]; in vitro activity quoted for VL development
[2] = tested on: visceral leishmaniasis (VL); conditions: 12.5 mg/kg of body weight orally twice a day; hamster models of VL

O=[N+]([O-])c1cn2c(n1)O[C@@H](COc1ccc(-c3ccc(F)cc3)nc1)CC2 [DNDI-0690]
EC50 [1]: 170 nM
in vivo efficacy [2]: > 99%
